From US20250032569A1, “COMPOSITION, IN PARTICULAR COSMETIC FORMULATION, COMPRISING A VERBASCOSIDE EXTRACT” (MEDENA AG, priority 2021, published 2025)

Key:
[1] = SPF calculated by modified Sayre method; format: physicochemical
Excerpt: In the following Table 20, there are SPF values obtained in vitro spectrophotometrically, which have been calculated by a classical Sayre method (Sayre, R M; Agin, P P; LeVee, G J; Marlowe, E. A comparison of in vivo and in vitro testing of sunscreening formulas, Photochem. Photobiol. 1979, 29, 559-566) and modified Sayre method, which gives results similar to those obtained in the in vivo tests recommended by COLIPA.
• (1) For water insoluble chemical filters, the modified Sayre method gives results close to those calculated by Simulator-Calculator (BASF) and the in vivo tests. The Simulator-Calculator uses the modified Sayre method assuming an exponentiation equal to 0.827 (X^0.827). • (2) For water soluble natural filters, the same modified Sayre method would give results close to those obtained by the in vivo tests (predicted by Simulator-Calculator). Examples of Cosmetic Compositions with Fully Natural Sun Protective Factors • 1. Sun protective lotion SPF 50+, high UV-A protection • 2. Sun protective cream SPF 50+, high UV-A protection • 3. Sun protective serum for pregnant and milking women SPF 50+, high UV-A protection • 4. Sun protective milk for babies SPF 50+, high UV-A protection • 5. Sun protective lotion SPF 20-30, high UV-A protection for people with highly sensitive skin E. Analysis of Sun Protective Parameters of Two Lotions and Cream Containing Lippia citriodora Extract with 40% of Verbascoside.

[2] = Critical wavelength (λC) from absorption spectra (Eq. 2); format: physicochemical; details: for critical wavelength: chemical sunscreen, no concentration stated
Description: The Critical Wavelength λC is the wavelength, where the area under the absorbance spectrum for the irradiated product from 290 nm to λC is equal to 90% of the integral value of the absorbance spectrum from 290 to 400 nm and was calculated using Eq. 2:
where A (λ)=monochromatic absorbance values at wavelength λ. The critical wavelength was determined for all samples in order to assess a degree of UVA protection. In cases where the critical wavelength is lower than 370 nm, the protection from UVA is less evident.
The Critical Wavelength λC value for the test product was defined as that wavelength where the area under the absorbance spectrum of the sample from 290 nm to λC is 90% of the integral of the absorbance spectrum from 290 to 400 nm and is calculated using Eq. 2:
[formula] • A(λ)=monochromatic absorbance values at wavelength λ

[3] = UVA/UVB ratio from absorption spectra (Eq. 3) and Boots UVA Star Rating; format: physicochemical; details: for ratio UVA/UVB: chemical sunscreen, no concentration stated
Description: Critical Wavelength (λC) and the UVA/UVB ratios were also calculated from the absorption spectra and were collected in Table 2. […] According to these International indications, aqueous solutions of Haberlea rhodopensis with different concentrations of myconoside can be attributed to the group of good protection (2 UVA Star Rating).
In order to further characterize solutions as skin photo-protectors from UVA, the UVA/UVB ratio was calculated using Eq. 3: […]
In order to characterize the ability of creams to protect skin against UVA the UVA/UVB ratio was calculated using Eq. 3: […]

[4] = Photo-stability under solar imitating UVA+UVB irradiation; format: physicochemical; details: absorption spectra without and after up to 40 min irradiation
[5] = In vitro spectrophotometric SPF calculated by the Sayre equation (Eq. 1); format: physicochemical
Description: Each sample (1 ml) was placed in a 1 cm quartz cell. The absorbance was measured between 250-600 nm at an interval of every 1 nm using a Varian UV/Vis spectrophotometer (Cary 50 Scan). The following parameters were measured and calculated for each sample assuming standard application to the skin—2 mg/cm^2: • the SPF values. • the critical wavelength λC • the UVA/UVB ratio 1. […]
Each sample (1 ml) was placed in a 1 cm quartz cell. The absorbance was measured between 250-600 nm at an interval of every 1 nm using a Varian UV/Vis spectrophotometer (Cary 50 Scan). The following parameters were measured and calculated for each sample assuming standard application to the skin—2 mg/cm^2: • the SPF values. • the critical wavelength λC • the UVA/UVB ratio
The SPF values in vitro were calculated according to the method described by Sayre et al., (Sayre, R M; Agin, P P; LeVee, G J; Marlowe, E. A comparison of in vivo and in vitro testing of sunscreening formulas, Photochem. Photobiol. 1979, 29, 559-566). The calculation was done using Equation 1: […]
where Ss(λ) is the spectral irradiance, Ser(λ) is the CIE erythema action spectrum and T(λ) is the transmission of the sunscreen. The values of Ss(λ) and Ser(λ) were taken from the literature (B. L. Diffey, J. Robson. A new substrate to measure sunscreen protection factors throughout the ultraviolet spectrum, J. Soc. Cosmet. Chem. 1989, 40, 127-133). […]
SPF values were calculated using Eq. 1 for sun protective cosmetics applied at 2 mg/cm^2 (standard application).
The same methods and equations as in the case of plant extracts were applied.
Solutions of sunscreens at concentrations 0.001% were prepared in duplicate and UV-visible absorption spectra were recorded over the range of 250-600 nm (FIG. 1). On the basis of these spectra, the transmission of the sunscreen (T) was found from monochromatic absorbance values at wavelength λ: T=10^−A(λ).
The SPF in vitro was calculated according to the method described by Sayre et al., (Sayre, R M; Agin, P P; LeVee, G J; Marlowe, E. A comparison of in vivo and in vitro testing of sunscreening formulas, Photochem. Photobiol. 1979, 29, 559-566) following equation 1: […]
where Ss(λ) is the spectral irradiance, Ser(λ) the CIE erythema action spectrum and T(λ) the trans-mission of the sunscreen. Data for Ss(λ) and Ser(λ) are available in the literature (B. L. Diffey, J. Robson. A new substrate to measure sunscreen protection factors throughout the ultraviolet spectrum, J. Soc. Cosmet. Chem. 1989, 40, 127-133).
The SPF values were calculated using Eq 1 with the application conditions 2 mg/cm^2 (Standard application recommended by the European Agency).
The SPF value for lotions were calculated using Eq. 1 for three application conditions at 2 mg/cm^2 (standard application), 2.5 mg/cm^2 and 3 mg/cm^2. In the same Table 22, critical wavelength and the UVA/UVB ratios are shown.

[6] = organic (synthetic) chemical sunscreens, Table 1; cited from earlier work
[7] = Solubility of chemical UV filters
[8] = UV filter 0.5% in sun protective cosmetic
[9] = UV filter 1.0% in sun protective cosmetic
[10] = UV filter 2.5% in sun protective cosmetic
[11] = UV filter 5% in sun protective cosmetic
[12] = UV filter 10% in sun protective cosmetic
[13] = chemical UV filter 0.5% in sun protective solution
[14] = chemical UV filter 1% in sun protective solution
[15] = chemical UV filter 2.5% in sun protective solution
[16] = chemical UV filter 5% in sun protective solution
[17] = chemical UV filter 10% in sun protective solution
[18] = UV filter 0.5% in sun protective cosmetic (Table 20)
[19] = UV filter 1.0% in sun protective cosmetic (Table 20)
[20] = UV filter 2.5% in sun protective cosmetic (Table 20)
[21] = chemical UV filter 0.5% in sun protective solution (Tables 12-19)
[22] = chemical UV filter 1% in sun protective solution (Tables 12-19)
[23] = chemical UV filter 2.5% in sun protective solution (Tables 12-19)
[24] = chemical UV filter 5% in sun protective solution (Tables 12-19)
[25] = chemical UV filter 10% in sun protective solution (Tables 12-19)
[26] = UV filter 5% in sun protective cosmetic (Table 20)

| Critical wavelength (λC) [2, 13] [nm] | Critical wavelength (λC) [2, 14] [nm] | Critical wavelength (λC) [2, 15] [nm] | Critical wavelength (λC) [2, 16] [nm] | critical wavelength [2] [nm] | Photo-stability to solar imitating UVA+UVB irradiation [4] | Molecule | SPF values calculated by Modified Sayre [1, 8] | SPF values calculated by Modified Sayre [1, 9] | SPF values calculated by Modified Sayre [1, 10] | SPF values calculated by Modified Sayre [1, 11] | SPF values calculated by the Sayre equation [5, 18] | SPF values calculated by the Sayre equation [5, 19] | SPF values calculated by the Sayre equation [5, 20] | SPF values [5, 21] | SPF values [5, 22] | SPF values [5, 23] | SPF values [5, 24] | Absorbs UV-B [6] | other results |
| --- | --- | --- | --- | --- | --- | --- | --- | --- | --- | --- | --- | --- | --- | --- | --- | --- | --- | --- | --- |
| 365 | 365 | 365 | 365 | 365 | HIGHLY unstable | CCCCC(CC)COc1ccc(-c2nc(-c3ccc(OC)cc3)nc(-c3ccc(OCC(CC)CCCC)cc3O)n2)c(O)c1 (stereo not drawn) [Bis-ethylhexyloxyphenol methoxyphenyl triazine] | 4.2 | 7.5 | 16.1 | 29 | 4.8 | 19 | 93 | 5.7 | 25 | 60 | 89 |  | SPF values calculated by Modified Sayre [1, 12]: 50; Critical wavelength (λC) [2, 17]: 365 nm; UVA/UVB [3, 13]: 0.50; UVA/UVB [3, 14]: 0.50; UVA/UVB [3, 15]: 0.50; UVA/UVB [3, 16]: 0.50; UVA/UVB [3, 17]: 0.50; ratio UVA/UVB [3]: 0.50; SPF ([5]; chemical UV filter 1.5%): 60; SPF ([5]; chemical UV filter 2.0%): 89; SPF values [5, 25]: 107 |
|  |  |  |  |  |  | CC(C)(C)CC(C)(C)c1cc(Cc2cc(C(C)(C)CC(C)(C)C)cc(-n3nc4ccccc4n3)c2O)c(O)c(-n2nc3ccccc3n2)c1 [Tinosorb M] |  |  |  |  |  |  |  |  |  |  |  | UV-B |  |
|  |  |  |  |  |  | CCCCC(CC)COc1ccc(-c2nc(-c3ccc(OC)cc3)nc(-c3ccc(OCC(CC)CCCC)cc3O)n2)c(O)c1 (stereo not drawn) [Tinosorb S] |  |  |  |  |  |  |  |  |  |  |  | UV-B | Absorbs UV-A [6]: UV-A |
|  |  |  |  |  |  | CCCCC(CC)COC(=O)c1ccc(Nc2nc(Nc3ccc(C(=O)NC(C)(C)C)cc3)nc(Nc3ccc(C(=O)OCC(CC)CCCC)cc3)n2)cc1 (stereo not drawn) [Uvasorb HEB] |  |  |  |  |  |  |  |  |  |  |  | UV-B |  |
|  |  |  |  |  |  | CCCCCCOC(=O)c1ccccc1C(=O)c1ccc(N(CC)CC)cc1O [Uvinul A plus] |  |  |  |  |  |  |  |  |  |  |  |  | Absorbs UV-A [6]: UV-A |
|  |  |  |  |  | HIGHLY unstable | CCCCC(CC)COC(=O)C=Cc1ccc(OC)cc1 (stereo not drawn) [octyl methoxycinnamate, Ethylhexyl methoxycinnamate] |  |  |  |  |  |  |  |  |  |  |  |  |  |
| 385 | 385 | 385 | 385 | 385 | HIGHLY unstable | butylmethoxydibenzoylmethane [avobenzone] | 1.5 | 2.1 | 3.2 | 4.4 | 1.5 | 2.0 | 6.1 | 1.9 | 3.0 | 19 | 297 |  | SPF values calculated by the Sayre equation [5, 26]: 32 |

| Molecule | Critical wavelength (λC) [2, 13] [nm] | Critical wavelength (λC) [2, 14] [nm] | Critical wavelength (λC) [2, 15] [nm] | Critical wavelength (λC) [2, 16] [nm] | critical wavelength [2] [nm] | Photo-stability to solar imitating UVA+UVB irradiation [4] | SPF values calculated by Modified Sayre [1, 8] | SPF values calculated by Modified Sayre [1, 9] | SPF values calculated by Modified Sayre [1, 10] | SPF values calculated by Modified Sayre [1, 11] | SPF values calculated by the Sayre equation [5, 18] | SPF values calculated by the Sayre equation [5, 19] | SPF values calculated by the Sayre equation [5, 20] | SPF values [5, 21] | SPF values [5, 22] | SPF values [5, 23] | SPF values [5, 24] | Absorbs UV-B [6] | other results |
| --- | --- | --- | --- | --- | --- | --- | --- | --- | --- | --- | --- | --- | --- | --- | --- | --- | --- | --- | --- |
| CCCCCCCCCCCCc1cc(C)cc(-n2nc3ccccc3n2)c1O [benzotriazolyl dodecyl p-cresol, Benzotriazolyl dodecyl p-cresol] | 363 | 363 | 363 | 363 | 363 |  | 2.0 | 3.1 | 5.4 | 8.3 | 2.1 | 5 | 29 | 2.4 | 6 | 41 | 105 |  | SPF values calculated by Modified Sayre [1, 12]: 12.7; SPF values calculated by Modified Sayre ([1]; UV filter 20% in sun protective cosmetic): 19; Solubility in water [7]: insoluble in water; Critical wavelength (λC) [2, 17]: 363 nm; UVA/UVB [3, 13]: 0.62; UVA/UVB [3, 14]: 0.62; UVA/UVB [3, 15]: 0.62; UVA/UVB [3, 16]: 0.62; UVA/UVB [3, 17]: 0.62; ratio UVA/UVB [3]: 0.62; SPF values calculated by the Sayre equation [5, 26]: 91; SPF values calculated by the Sayre equation ([5]; UV filter 10% in sun protective cosmetic (Table 20)): 132; SPF values [5, 25]: 157 |
